{"source": "patent US20100086592A1", "about": "“MODIFIED DOSAGE FORMS OF TACROLIMUS” (PANACEA BIOTEC LIMITED., priority 2007, published 2010)", "origin": "cited, not measured here", "details": "oral", "note": "Read-outs that look alike come from different tables or passages of the source."}
{"smiles": "C=CC[C@@H]1/C=C(\\C)C[C@H](C)C[C@H](OC)[C@H]2O[C@@](O)(C(=O)C(=O)N3CCCC[C@H]3C(=O)O[C@H](/C(C)=C/[C@@H]3CC[C@@H](O)[C@H](OC)C3)[C@H](C)[C@@H](O)CC1=O)[C@H](C)C[C@@H]2OC", "note": "[tacrolimus, Tacrolimus]", "values": [{"measurement": "absolute bioavailability", "setting": "adult heart transplantation patients (N=11)", "result": "23±9", "unit": "%"}, {"measurement": "absolute bioavailability", "setting": "adult liver transplant patients (N=17)", "result": "22±6", "unit": "%"}, {"measurement": "absolute bioavailability", "setting": "healthy volunteers (N=16)", "result": "18±5", "unit": "%"}]}
